Patent US20090163586A1, “Bis-(Sulfonylamino) Derivatives in Therapy 205” (AstraZeneca AB, priority 2007, published 2009)
pIC50: −log10 of the molar value.

These molecules were tested against T1, human mPGES-1 (Homo sapiens, UniProt O14684) (assay: Microsomal prostaglandin E synthase biochemical assay). Conditions: microsome preparation containing human mPGES-1; PGH2 10.8 μM, GSH 2.5 mM, pH 6.8; PGE2 by HTRF; average of at least n=2.
T1 sequence (O14684 1-152): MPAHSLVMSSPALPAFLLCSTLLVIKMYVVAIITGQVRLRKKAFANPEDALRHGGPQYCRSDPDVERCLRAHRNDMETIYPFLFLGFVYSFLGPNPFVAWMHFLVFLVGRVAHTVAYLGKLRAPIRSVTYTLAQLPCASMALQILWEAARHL
Experimental: Compounds were tested as inhibitors of microsomal prostaglandin E synthase activity in microsomal prostaglandin E synthase assays and whole cell assays. These assays measure prostaglandin E2 (PGE2) synthesis which is taken as a measure of prostaglandin E synthase activity. Microsomal prostaglandin E synthase biochemical assays used microsomal prostaglandin E synthase-1 in microsomal preparations. The source of the microsomes can be for example interleukin-1β-stimulated human A549 cells (which express human mPGES-1) or Sf9 cells transfected with plasmids encoding human mPGES-1 cDNA. The whole blood assay [described by Patrignani, P. et al., Journal of Pharmacology and Experimental Therapeutics, 1994, vol. 271, pp 1705-1712] was used as the whole cell assay for testing the compounds. Whole blood provides a protein and cell rich milieu for the study of biochemical efficacy of anti-inflammatory compounds such as prostaglandin synthase inhibitors. To study the inhibitory activities of these compounds, human blood was stimulated with lipopolysaccharide (LPS) for typically 16 hours to induce mPGES-1 expression, after which the concentration of produced PGE2 was measured by competitive-immuno assay (homogeneous time-resolved fluorescence, HTRF) as read out for effectiveness against mPGES-1-dependent PGE2 production.
Microsomal Prostaglandin E Synthase Biochemical Assay
A solution of test compound was added to a diluted microsome preparation containing human mPGES-1 and pre-incubated for 15 minutes in potassium phosphate buffer pH 6.8 with cofactor glutathione (GSH). Corresponding solutions without test compound were used as positive controls, and corresponding solutions without test compound and without microsomes were used as negative controls. The enzymatic reaction was then started by addition of the substrate PGH2 in an organic solution (dry acetonitrile).
The typical reaction conditions of the enzymatic reaction were thus: Test compound: ranging from 60 μM to 0.002 μM, or zero in positive and negative controls; potassium phosphate buffer pH 6.8: 50 mM; GSH: 2.5 mM; mPGES-1-containing microsomes: 2 μg/mL (sample and positive controls) or 0 μg/mL (negative control); PGH2: 10.8 μM; Acetonitrile: 7.7% (v/v); DMSO: 0.6% (v/v). The reaction was stopped after one minute by adding an acidic solution (pH 1.9) of ferric chloride and citrate (final concentrations 7 mM and 47 mM respectively), by which the PGH2 was sequestered (the PGH2 is reduced to mainly 12-hydroxy heptadecatrineoic acid (12-HHT) which is not detected by the subsequent PGE2 detection step). The resulting solution was then pH neutralized by addition of potassium phosphate buffer, prior to diluting an aliquot of the resulting solution in a weak potassium phosphate buffer (50 mM, pH 6.8) containing 0.2% BSA (w/v). [Adapted from Jacobsson et al., Proc. Natl. Acad. Sci. USA, 1999, vol. 96, pp. 7220-7225]The PGE2 formed was quantified by use of a commercial HTRF based kit (catalogue #62PG2PEC or #62P2APEC from Cisbio International). 100% activity was defined as the PGE2 production in positive controls subtracted by the PGE2 production in the negative controls. IC50 values were then determined using standard procedures.
The potency is expressed as IC50 and the value indicated is an average of at least n=2.

`NS(=O)(=O)c1ccc(F)cc1NS(=O)(=O)/C=C/c1ccc(-c2ccco2)cc1` [Example 34, 4-Fluoro-2-[[(E)-2-[4-(2-furyl)phenyl]ethenyl]sulfonylamino]benzenesulfonamide] and `NS(=O)(=O)c1cc(F)ccc1NS(=O)(=O)/C=C/c1ccc(-c2ccco2)cc1` [Example 35, 5-Fluoro-2-[[(E)-2-[4-(2-furyl)phenyl]ethenyl]sulfonylamino]benzenesulfonamide] are within 0.2 log units of each other in pIC50: 6.92 for the first, 6.77 for the second.

Compared with `NS(=O)(=O)c1c(F)cccc1NS(=O)(=O)/C=C/c1ccc(-c2ccco2)cc1` [Example 36, 2-Fluoro-6-[[(E)-2-[4-(2-furyl)phenyl]ethenyl]sulfonylamino]benzenesulfonamide], `NS(=O)(=O)c1c(F)cccc1NS(=O)(=O)/C=C/c1ccc(-c2ccccc2)cc1` [Example 50, 2-Fluoro-6-[[(E)-2-(4-phenylphenyl)ethenyl]sulfonylamino]benzenesulfonamide] is 0.35 log units lower in pIC50: 7.24 for the first, 6.89 for the second. The first is the more potent here.

`CSc1ccc(/C=C/S(=O)(=O)Nc2cc(F)ccc2S(N)(=O)=O)cc1` [Example 37, 4-Fluoro-2-[[(E)-2-(4-methylsulfanylphenyl)ethenyl]sulfonylamino]-benzenesulfonamide] and `CSc1ccc(/C=C/S(=O)(=O)Nc2ccc(F)cc2S(N)(=O)=O)cc1` [Example 38, 5-Fluoro-2-[[(E)-2-(4-methylsulfanylphenyl)ethenyl]sulfonylamino]-benzenesulfonamide] are within 0.2 log units of each other in pIC50: 6.80 for the first, 6.66 for the second.

`CSc1ccc(/C=C/S(=O)(=O)Nc2cccc(F)c2S(N)(=O)=O)cc1` [Example 39, 2-Fluoro-6-[[(E)-2-(4-methylsulfanylphenyl)ethenyl]sulfonylamino]-benzenesulfonamide] and `CSc1ccc(/C=C/S(=O)(=O)Nc2ccccc2S(N)(=O)=O)cc1` [Example 40, 2-[[(E)-2-(4-Methylsulfanylphenyl)ethenyl]sulfonylamino]benzenesulfonamide] are within 0.2 log units of each other in pIC50: 5.85 for the first, 5.92 for the second.

`NS(=O)(=O)c1ccc(F)cc1NS(=O)(=O)/C=C/c1ccc(OC(F)F)cc1` [Example 41, 2-[[(E)-2-[4-(Difluoromethoxy)phenyl]ethenyl]sulfonylamino]-4-fluoro-benzenesulfonamide] and `NS(=O)(=O)c1cc(F)ccc1NS(=O)(=O)/C=C/c1ccc(OC(F)F)cc1` [Example 42, 2-[[(E)-2-[4-(Difluoromethoxy)phenyl]ethenyl]sulfonylamino]-5-fluoro-benzenesulfonamide] are within 0.2 log units of each other in pIC50: 5.96 for the first, 5.80 for the second.

Compared with `NS(=O)(=O)c1c(F)cccc1NS(=O)(=O)/C=C/c1ccc(OC(F)F)cc1` [Example 43, 2-[[(E)-2-[4-(Difluoromethoxy)phenyl]ethenyl]sulfonylamino]-6-fluoro-benzenesulfonamide], `NS(=O)(=O)c1c(F)cccc1NS(=O)(=O)/C=C/c1cccc(Cl)c1` [Example 56, 2-[[(E)-2-(3-Chlorophenyl)ethenyl]sulfonylamino]-6-fluoro-benzenesulfonamide] is 0.68 log units lower in pIC50: 6.96 for the first, 6.28 for the second.

Going from `NS(=O)(=O)c1cc(CO)ccc1NS(=O)(=O)CCc1ccc(Cl)cc1` [Example 44, 2-[2-(4-Chlorophenyl)ethylsulfonylamino]-5-(hydroxymethyl)benzenesulfonamide] to `Cc1ccc(NS(=O)(=O)CCc2ccc(Cl)cc2)c(S(N)(=O)=O)c1` [Example 45, 2-[2-(4-Chloro-phenyl)-ethanesulfonylamino]-5-methylbenzenesulfonamide], the pIC50 falls from 6.12 to 5.89 (0.23 log units).

`NS(=O)(=O)c1cc(OCc2ccccn2)ccc1NS(=O)(=O)CCc1ccc(Cl)cc1` [Example 46, 2-[2-(4-Chlorophenyl)ethylsulfonylamino]-5-(pyridin-2-ylmethoxy)benzenesulfonamide] and `Cc1nnc(COc2ccc(NS(=O)(=O)CCc3ccc(Cl)cc3)c(S(N)(=O)=O)c2)o1` [Example 47, 2-[2-(4-Chlorophenyl)ethylsulfonylamino]-5-[(5-methyl-1,3,4-oxadiazol-2-yl)methoxy]benzenesulfonamide] are within 0.2 log units of each other in pIC50: 5.96 for the first, 5.80 for the second.

Compared with `NS(=O)(=O)c1ccccc1NS(=O)(=O)/C=C/c1ccccc1Cl` [Example 48, 2-[2-(2-Chloro-phenyl)-ethenesulfonylamino]-benzenesulfonamide], `COc1cc(Cl)ccc1/C=C/S(=O)(=O)Nc1ccccc1S(N)(=O)=O` [Example 49, 2-[2-(4-Chloro-2-methoxy-phenyl)-ethenesulfonylamino]-benzenesulfonamide] is 1.21 log units higher in pIC50: 6.23 for the first, 7.44 for the second.

First: NS(=O)(=O)c1cc(F)ccc1NS(=O)(=O)/C=C/c1cccc(Cl)c1 [Example 51, 2-[[(E)-2-(3-Chlorophenyl)ethenyl]sulfonylamino]-5-fluoro-benzenesulfonamide]
Second: Cc1ccc(NS(=O)(=O)/C=C/c2cccc(Cl)c2)c(S(N)(=O)=O)c1 [Example 63, 2-[[(E)-2-(3-Chlorophenyl)ethenyl]sulfonylamino]-5-methyl-benzenesulfonamide]
The pIC50 of the first is 0.21 log units lower: 5.31 for the first, 5.52 for the second.

Compared with `NS(=O)(=O)c1cc(F)ccc1NS(=O)(=O)/C=C/c1ccc(-c2ccccc2)cc1` [Example 52, 5-Fluoro-2-[[(E)-2-(4-phenylphenyl)ethenyl]sulfonylamino]benzenesulfonamide], `NS(=O)(=O)c1ccc(F)cc1NS(=O)(=O)/C=C/c1ccc(-c2ccccc2)cc1` [Example 53, 4-Fluoro-2-[[(E)-2-(4-phenylphenyl)ethenyl]sulfonylamino]benzenesulfonamide] is 0.28 log units lower in pIC50: 7.08 for the first, 6.80 for the second. The first is the more potent here.

Compared with `NS(=O)(=O)c1cc(F)ccc1NS(=O)(=O)/C=C/c1cccc(C(F)(F)F)c1` [Example 54, 5-Fluoro-2-[[(E)-2-[3-(trifluoromethyl)phenyl]ethenyl]sulfonylamino]-benzenesulfonamide], `NS(=O)(=O)c1ccc(F)cc1NS(=O)(=O)/C=C/c1cccc(C(F)(F)F)c1` [Example 61, 4-Fluoro-2-[[(E)-2-[3-(trifluoromethyl)phenyl]ethenyl]sulfonylamino]-benzenesulfonamide] is 0.95 log units lower in pIC50: 6.57 for the first, 5.62 for the second. The first is the more potent here.

`COc1ccccc1/C=C/S(=O)(=O)Nc1ccc(F)cc1S(N)(=O)=O` [Example 55, 5-Fluoro-2-[[(E)-2-(2-methoxyphenyl)ethenyl]sulfonylamino]benzenesulfonamide] and `COc1ccccc1/C=C/S(=O)(=O)Nc1cc(F)ccc1S(N)(=O)=O` [Example 58, 4-Fluoro-2-[[(E)-2-(2-methoxyphenyl)ethenyl]sulfonylamino]benzenesulfonamide] are within 0.2 log units of each other in pIC50: 6.44 for the first, 6.52 for the second.

First: COc1ccccc1/C=C/S(=O)(=O)Nc1cccc(F)c1S(N)(=O)=O [Example 57, 2-Fluoro-6-[[(E)-2-(2-methoxyphenyl)ethenyl]sulfonylamino]benzenesulfonamide]
Second: NS(=O)(=O)c1c(F)cccc1NS(=O)(=O)/C=C/c1ccccc1F [Example 62, 2-Fluoro-6-[[(E)-2-(2-fluorophenyl)ethenyl]sulfonylamino]benzenesulfonamide]
The pIC50 of the first is 0.61 log units higher: 6.21 for the first, 5.60 for the second.

`NS(=O)(=O)c1cccc(F)c1NS(=O)(=O)/C=C/c1ccc(-c2ccccc2)cc1` [Example 59, 3-Fluoro-2-[[(E)-2-(4-phenylphenyl)ethenyl]sulfonylamino]benzenesulfonamide] and `COc1ccccc1/C=C/S(=O)(=O)Nc1c(F)cccc1S(N)(=O)=O` [Example 60, 3-Fluoro-2-[[(E)-2-(2-methoxyphenyl)ethenyl]sulfonylamino]benzenesulfonamide] are within 0.2 log units of each other in pIC50: 5.64 for the first, 5.62 for the second.
